Test results taken from patent publication US6649780B1, “Cationic lipids” (Valentis, Inc., priority 1998, dated 2003).

Experiment: Liposome formation and sizing after extrusion
Format: physicochemical
Procedure: Two mice studies have been performed for the evaluation of cationic lipids of the present invention, in comparison with DOTIM. In brief, the lipid combinations were tested as carriers for gene transfer by intravenous delivery in ICR female mice (25 g), and expression was determined using the plasmid p4119 containing the CAT reporter gene under the control of the HCMV promoter. The lipids were dissolved in a mixture of chloroform and methanol (1.1). Lipid films of cationic and neutral lipid at a 1:1 molar ratio were formed with a rotary evaporator. The films were hydrated with 5% dextrose in water (D5W) at room temperature and extruded through a series of membranes having pore sizes of 400 nm, 200 nm, and 50 nm.
DNA-liposome complexes were prepared at a 1:10 DNA:cationic lipid ratio (mg DNA per μmole cationic lipid) by adding the DNA, in a solution at 0.625 mg/mL concentration in D5W to the solution of liposomes, in an equal volume, with constant stirring, using a Hamilton Dilutor 540B (Hamilton, Reno, Nev.). The lipids used were MBN 246, 247, 248, 249, 250, 251 and 252 (FIG. 10). MBN 249 was used in a 1:10 ratio with cholesterol. MBN 250 was used in a 1:10 ratio with DLPE. The DNA solution was 0.3125 mg/mL DNA in D5W. […] Zeta potential was determined by a Zeta Plus, Zeta Potential Analyzer (Brookhaven Instruments Corp.).

liposome formation: forms liposomes easily
Substance: N,N-Dimethyl-N-(2,3-dihydroxypropanylo-N-(2,3-dioleyloxypropanyl)amonium Chloride [MBN305]
